This is an account of results in patent US20220388964A1 (HiberCell, Inc., priority 2019, published 2022).

T1 sequence (Q9P2K8 whole entry): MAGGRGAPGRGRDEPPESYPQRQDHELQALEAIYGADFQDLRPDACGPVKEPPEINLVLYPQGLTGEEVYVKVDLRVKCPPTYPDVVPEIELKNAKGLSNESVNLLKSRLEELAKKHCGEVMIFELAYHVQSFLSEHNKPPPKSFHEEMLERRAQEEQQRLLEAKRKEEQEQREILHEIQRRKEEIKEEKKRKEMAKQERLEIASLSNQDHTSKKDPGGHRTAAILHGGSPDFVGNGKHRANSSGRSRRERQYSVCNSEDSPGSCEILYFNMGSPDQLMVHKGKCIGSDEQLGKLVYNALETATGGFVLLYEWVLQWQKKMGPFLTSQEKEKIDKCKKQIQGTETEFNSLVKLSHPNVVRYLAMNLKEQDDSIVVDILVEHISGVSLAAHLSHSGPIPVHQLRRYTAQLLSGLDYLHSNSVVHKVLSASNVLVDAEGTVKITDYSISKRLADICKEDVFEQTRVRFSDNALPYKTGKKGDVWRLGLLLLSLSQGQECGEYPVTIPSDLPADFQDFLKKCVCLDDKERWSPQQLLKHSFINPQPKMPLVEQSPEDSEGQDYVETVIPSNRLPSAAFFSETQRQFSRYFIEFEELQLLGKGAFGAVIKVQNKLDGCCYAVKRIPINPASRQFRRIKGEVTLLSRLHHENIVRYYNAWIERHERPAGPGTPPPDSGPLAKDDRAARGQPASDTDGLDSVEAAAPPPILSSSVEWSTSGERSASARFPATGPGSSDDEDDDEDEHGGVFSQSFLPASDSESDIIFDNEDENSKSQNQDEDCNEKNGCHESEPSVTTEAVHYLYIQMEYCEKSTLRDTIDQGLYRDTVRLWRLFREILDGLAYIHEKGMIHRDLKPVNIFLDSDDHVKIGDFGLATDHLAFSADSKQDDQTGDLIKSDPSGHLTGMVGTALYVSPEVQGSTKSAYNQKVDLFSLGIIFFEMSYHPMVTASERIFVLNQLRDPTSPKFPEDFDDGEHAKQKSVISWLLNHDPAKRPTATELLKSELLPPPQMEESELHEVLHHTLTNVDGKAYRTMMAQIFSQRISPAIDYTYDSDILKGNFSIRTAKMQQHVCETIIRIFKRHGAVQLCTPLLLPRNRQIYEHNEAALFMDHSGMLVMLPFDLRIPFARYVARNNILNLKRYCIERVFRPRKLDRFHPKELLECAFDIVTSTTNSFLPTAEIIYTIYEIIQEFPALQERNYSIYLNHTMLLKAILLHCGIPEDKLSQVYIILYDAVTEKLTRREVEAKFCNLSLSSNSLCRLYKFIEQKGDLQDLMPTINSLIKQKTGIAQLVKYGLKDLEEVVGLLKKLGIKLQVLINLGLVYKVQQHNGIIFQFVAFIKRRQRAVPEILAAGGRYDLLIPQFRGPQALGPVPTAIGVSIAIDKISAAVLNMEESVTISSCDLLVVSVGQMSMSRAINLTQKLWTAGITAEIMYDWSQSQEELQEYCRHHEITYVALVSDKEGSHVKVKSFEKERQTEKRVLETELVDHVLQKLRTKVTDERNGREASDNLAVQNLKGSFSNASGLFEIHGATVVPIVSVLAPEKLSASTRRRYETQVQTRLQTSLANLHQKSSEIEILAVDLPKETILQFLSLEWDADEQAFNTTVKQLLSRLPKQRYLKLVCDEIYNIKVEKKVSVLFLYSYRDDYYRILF

One assay concerns the target T1, GCN2 (Homo sapiens, UniProt Q9P2K8). Description: TR-FRET biochemical assay for inhibition of GCN2 (Example 106, for Example 1-4BB). The following applies: Table 9. (In TR-FRET formats the signal depends on donor and acceptor labels being close together.)
As a reminder, the IC50 is the concentration that gives 50% inhibition. Higher therefore signals a need for much substance. `COc1ncc(F)cc1S(=O)(=O)Nc1cccc(-c2ccc3c(-c4ncc[nH]4)n[nH]c3c2Cl)c1F` [Example 18, N-(3-(7-Chloro-3-(1H-imidazol-2-yl)-1H-indazol-6-yl)-2-fluorophenyl)-5-fluoro-2-methoxypyridine-3-sulfonamide] had an IC50 of 500 to 2500 nM. The same measure, in the same setting: the value for `COc1ncc(F)cc1S(=O)(=O)Nc1ccc(F)c(-c2ccc3c(-c4nc(C#N)c[nH]4)n[nH]c3c2F)c1F` [Example 19, N-(3-(3-(4-Cyano-1H-imidazol-2-yl)-7-fluoro-1H-indazol-6-yl)-2,4-difluorophenyl)-5-fluoro-2-methoxypyridine-3-sulfonamide] was under 500 nM; that for `COc1ncc(F)cc1S(=O)(=O)Nc1ccc(F)c(-c2ccc3c(-c4nc(C(N)=O)c[nH]4)n[nH]c3c2F)c1F` [Example 20, 2-(6-(2,6-Difluoro-3-((5-fluoro-2-methoxypyridine)-3-sulfonamido)phenyl)-7-fluoro-1H-indazol-3-yl)-1H-imidazole-4-carboxamide] was under 500 nM; that for `COc1ncc(F)cc1S(=O)(=O)Nc1ccc(F)c(-c2ccc3c(-c4nc(C(O)CO)c[nH]4)n[nH]c3c2F)c1F` (stereo not shown) [Example 21, N-(3-(3-(4-(1,2-Dihydroxyethyl)-1H-imidazol-2-yl)-7-fluoro-1H-indazol-6-yl)-2,4-difluorophenyl)-5-fluoro-2-methoxypyridine-3-sulfonamide] was under 500 nM. The molecule `COc1ncc(F)cc1S(=O)(=O)Nc1cccc(-c2ccc3c(-c4ncc[nH]4)n[nH]c3c2C)c1F` [Example 22, N-(3-(3-(1H-Imidazol-2-yl)-7-methyl-1H-indazol-6-yl)-2-fluorophenyl)-5-fluoro-2-methoxypyridine-3-sulfonamide] registered an IC50 of 500 to 2500 nM. As to `COc1ncc(F)cc1S(=O)(=O)Nc1ccc(F)c(-c2ccc3c(C(=O)NCCNC(C)=O)n[nH]c3c2F)c1F` [Example 23, N-(2-Acetamidoethyl)-6-(2,6-difluoro-3-((5-fluoro-2-methoxypyridine)-3-sulfonamido)phenyl)-7-fluoro-1H-indazole-3-carboxamide], the IC50 lay in the range of 500 to 2500 nM. Same read-out and setting: the result for `CNC(=O)c1n[nH]c2c(F)c(-c3c(F)cnc(NS(=O)(=O)c4cc(F)cnc4C)c3F)ccc12` [Example 24, 6-(3,5-Difluoro-2-((5-fluoro-2-methylpyridine)-3-sulfonamido)pyridin-4-yl)-7-fluoro-N-methyl-1H-indazole-3-carboxamide] reads over 10000 nM. On the same count and under the same terms, the value for `COc1ccc(NS(=O)(=O)c2cc(F)cnc2OC)c(F)c1-c1ccc2c(C(=O)NCCCO)n[nH]c2c1F` [Example 25, 7-Fluoro-6-(2-fluoro-3-((5-fluoro-2-methoxypyridine)-3-sulfonamido)-6-methoxyphenyl)-N-(3-hydroxypropyl)-1H-indazole-3-carboxamide] was 2500 to 10000 nM. On the same count and under the same terms, the result for `COc1ncc(F)cc1S(=O)(=O)Nc1cccc(-c2ccc3c(C(=O)NCCCO)n[nH]c3c2F)c1F` [Example 26, 7-Fluoro-6-(2-fluoro-3-((5-fluoro-2-methoxypyridine)-3-sulfonamido)phenyl)-N-(3-hydroxypropyl)-1H-indazole-3-carboxamide] reads under 500 nM. Regarding `Cc1ncc(F)cc1S(=O)(=O)Nc1cc(F)cc(-c2ccc3c(-c4ncc[nH]4)n[nH]c3c2F)c1F` [Example 27, N-(2,5-Difluoro-3-(7-fluoro-3-(1H-imidazol-2-yl)-1H-indazol-6-yl)phenyl)-5-fluoro-2-methylpyridine-3-sulfonamide], the IC50 is under 500 nM. On the same count and under the same terms, the value for `COc1ncc(F)cc1S(=O)(=O)Nc1ncc(F)c(-c2ccc3c(-c4ncc[nH]4)n[nH]c3c2F)c1F` [Example 28, N-(3,5-Difluoro-4-(7-fluoro-3-(1H-imidazol-2-yl)-1H-indazol-6-yl)pyridin-2-yl)-5-fluoro-2-methoxypyridine-3-sulfonamide] was under 500 nM. The molecule `COc1ncc(F)cc1S(=O)(=O)Nc1ccnc(-c2ccc3c(-c4ncc[nH]4)n[nH]c3c2F)c1C#N` [Example 29, N-(3-Cyano-2-(7-fluoro-3-(1H-imidazol-2-yl)-1H-indazol-6-yl)pyridin-4-yl)-5-fluoro-2-methoxypyridine-3-sulfonamide] registered an IC50 of 2500 to 10000 nM. The same measure, in the same setting: the result for `Cc1ccc(F)cc1S(=O)(=O)Nc1ncc(F)c(-c2ccc3c(-c4ncc[nH]4)n[nH]c3c2F)c1F` [Example 30, N-(3,5-Difluoro-4-(7-fluoro-3-(1H-imidazol-2-yl)-1H-indazol-6-yl)pyridin-2-yl)-5-fluoro-2-methylbenzenesulfonamide] reads under 500 nM.

Regarding `COc1ncc(F)cc1S(=O)(=O)Nc1nccc(-c2ccc3c(-c4ncc[nH]4)n[nH]c3c2F)c1C#N` [Example 31], the IC50 lay in the range of 500 to 2500 nM. The molecule `Cc1c(CO)cc(F)cc1S(=O)(=O)Nc1ccc(F)c(-c2ccc3c(-c4ncc[nH]4)n[nH]c3c2F)c1F` [Example 32, N-(2,4-Difluoro-3-(7-fluoro-3-(1H-imidazol-2-yl)-1H-indazol-6-yl)phenyl)-5-fluoro-3-(hydroxymethyl)-2-methylbenzenesulfonamide] returned an IC50 of under 500 nM. The molecule `COc1ncc(Cl)cc1S(=O)(=O)Nc1cccc(-c2cc3[nH]nc(C(=O)NCCCN(C)C)c3cn2)c1F` [Example 35, 6-[3-[(5-chloro-2-methoxy-3-pyridyl)sulfonylamino]-2-fluoro-phenyl]-N-[3-(dimethylamino)propyl]-1H-pyrazolo[4,3-c]pyridine-3-carboxamide] yielded a half-inhibitory concentration (IC50) of under 500 nM. As to `COc1ncc(Cl)cc1S(=O)(=O)Nc1cc(F)cc(-c2ncc3c(-c4ncc[nH]4)n[nH]c3c2F)c1F` [Example 36, 5-chloro-N-[2,5-difluoro-3-[7-fluoro-3-(1H-imidazol-2-yl)-1H-pyrazolo[4,3-c]pyridin-6-yl]phenyl]-2-methoxy-pyridine-3-sulfonamide], the IC50 is under 500 nM.

`Cc1ccc(F)cc1S(=O)(=O)Nc1ccc(F)c(-c2ncc3c(-c4ncc[nH]4)n[nH]c3c2F)c1F` [Example 38, N-[2,4-difluoro-3-[7-fluoro-3-(1H-imidazol-2-yl)-1H-pyrazolo[4,3-c]pyridin-6-yl]phenyl]-5-fluoro-2-methyl-benzenesulfonamide] had a concentration for half-maximal inhibition (IC50) of under 500 nM.

In another assay the target is T1, GCN2. The assay can be described thus: TR-FRET assay for inhibition of GCN2 (Example 107, for Examples 40-72).
Details: not given
Regarding `CNC(=O)c1n[nH]c2c(F)c(-c3c(F)ccc(NS(=O)(=O)c4cccc(CO)c4)c3F)ccc12` [Example 41, 6-[2,6-Difluoro-3-[3-(hydroxymethyl)benzenesulfonamido]phenyl]-7-fluoro-N-methyl-1H-indazole-3-carboxamide], the IC50 was in the range of 500 to 2500 nM.

For the molecule `CNC(=O)c1n[nH]c2c(F)c(-c3c(F)ccc(NS(=O)(=O)c4cc(F)cc(CO)c4)c3F)ccc12` [Example 42, 6-[2,6-difluoro-3-[3-fluoro-5-(hydroxymethyl)benzenesulfonamido]phenyl]-7-fluoro-N-methyl-1H-indazole-3-carboxamide], the IC50 was under 500 nM.

Molecule `COc1ncc(Cl)cc1S(=O)(=O)Nc1ccc(F)c(-c2ccc3c(NC(C)=O)n[nH]c3c2F)c1F` [Example 44, N-(6-(3-(5-chloro-2-methoxypyridine-3-sulfonamido)-2,6-difluorophenyl)-7-fluoro-1H-indazol-3-yl)acetamide] gave an IC50 of under 500 nM.

Molecule `CNC(=O)c1n[nH]c2c(F)c(-c3c(F)ccc(NS(=O)(=O)c4cc(Cl)cnc4OC(F)F)c3F)ccc12` [Example 45, 6-[3-[5-chloro-2-(difluoromethoxy)pyridine-3-sulfonamido]-2,6-difluorophenyl]-7-fluoro-N-methyl-1H-indazole-3-carboxamide] returned an IC50 of under 500 nM.
